From patent US9284333B2, “Fused pyrroledicarboxamides and their use as pharmaceuticals” (SANOFI, priority 2012, dated 2016)

Target: Human TASK-1 channels (Homo sapiens (Human), UniProt O14649)
Experiment: Determination of the activity on the TASK-1 channel in Xenopus oocytes (two-microelectrode voltage clamp)
Assay type: cell-based
Settings: for IC50: human TASK-1 expressed in Xenopus oocytes, room temperature, read-out: IC50 value for TASK-1 inhibition; for inhibition at 5 µM: compound concentration 5 μM
Description: Determination of the activity on the TASK-1 channel in Xenopus oocytes
Human TASK-1 channels were expressed in Xenopus oocytes. For this purpose, oocytes were isolated from Xenopus laevis and defoliculated. Subsequently, TASK-1-encoding RNA synthesized in vitro was injected into the oocytes. After two days of TASK-1 protein expression, TASK-1 currents were measured by two-microelectrode voltage clamp. Data were acquired and analyzed using a TEC-10cx amplifier (NPI Electronic, Tamm, Germany) connected to an ITC-16 interface (Instrutech Corp., Long Island, USA) and Pulse software (HEKA Elektronik, Lambrecht, Germany). Oocytes were clamped to −90 mV and TASK-1 mediated currents were measured during 500 ms voltage pulses to 40 mV. Oocytes were continuously superfused with ND96 buffer containing 96 mM sodium chloride, 2 mM potassium chloride, 1.8 mM calcium chloride, 1 mM magnesium chloride, 5 mM 4-(2-hydroxyethyl)-piperazine-1-ethanesulfonic acid (HEPES; pH adjusted to 7.4 with sodium hydroxide). All experiments were performed at room temperature. Test compounds were consecutively added to the bath solution at rising concentrations. Compound effects were calculated as the percentage inhibition of TASK-1 control current before compound addition. IC50 values were obtained by fitting the data to the general dose-response equation.

Chain of Human TASK-1 channels (O14649 whole entry): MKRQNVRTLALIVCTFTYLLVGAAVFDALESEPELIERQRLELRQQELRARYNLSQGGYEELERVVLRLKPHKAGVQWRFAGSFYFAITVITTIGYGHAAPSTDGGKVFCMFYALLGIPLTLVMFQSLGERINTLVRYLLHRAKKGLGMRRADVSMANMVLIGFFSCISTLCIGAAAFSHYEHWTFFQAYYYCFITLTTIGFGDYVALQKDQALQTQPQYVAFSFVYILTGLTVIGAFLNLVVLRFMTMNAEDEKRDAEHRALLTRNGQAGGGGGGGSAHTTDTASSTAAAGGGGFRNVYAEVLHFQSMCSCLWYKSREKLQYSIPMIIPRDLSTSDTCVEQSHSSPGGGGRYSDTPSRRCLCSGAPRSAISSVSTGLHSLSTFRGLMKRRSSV

Row | IC50 [nM] | inhibition at 5 µM [%] | Compound
1 | 48 | – | CC[C@@H](NC(=O)c1cc(C(=O)N[C@H](C)c2ccc(F)cc2)n2c1COCC2)c1cnc(OC)cn1 [16dw, 3,4-Dihydro-1H-pyrrolo[2,1-c][1,4]oxazine-6,8-dicarboxylic acid 6-{[(R)-1-(4-fluoro-phenyl)-ethyl]-amide} 8-{[(R)-1-(5-methoxy-pyrazin-2-yl)-propyl]-amide}]
2 | 69 | – | CC[C@@H](NC(=O)c1cc(C(=O)N2CCC[C@@H]2C)n2c1COCC2)c1ccccc1 [16a, 6-((S)-2-Methyl-pyrrolidine-1-carbonyl)-3,4-dihydro-1H-pyrrolo[2,1-c][1,4]oxazine-8-carboxylic acid ((R)-1-phenyl-propyl)-amide]
3 | 2400 | – | CC[C@@H](NC(=O)c1cc(C(=O)N2CCC[C@@H]2C)n2c1COCC2)c1cnc(C(F)(F)F)c(OC)c1 [16cw, 6-((S)-2-Methyl-pyrrolidine-1-carbonyl)-3,4-dihydro-1H-pyrrolo[2,1-c][1,4]oxazine-8-carboxylic acid [(R)-1-(5-methoxy-6-trifluoromethyl-pyridin-3-yl)-propyl]-amide]
4 | 4700 | – | CC[C@@H](NC(=O)c1cc(C(=O)N2CCC[C@@H]2C(C)O)n2c1COCC2)c1ccccc1 (stereo partly drawn) [16ey, 6-[(R)-2-(1-Hydroxy-ethyl)-pyrrolidine-1-carbonyl]-3,4-dihydro-1H-pyrrolo[2,1-c][1,4]oxazine-8-carboxylic acid ((R)-1-phenyl-propyl)-amide]
5 | – | 60 | CC[C@@H](NC(=O)c1cc(C(=O)N2CCC[C@@H]2C)n2c1COCC2)c1ccc(SC)nc1 [16ra, 6-((S)-2-Methyl-pyrrolidine-1-carbonyl)-3,4-dihydro-1H-pyrrolo[2,1-c][1,4]oxazine-8-carboxylic acid [(R)-1-(6-methylsulfanyl-pyridin-3-yl)-propyl]-amide]
6 | 310 | – | CC[C@@H](NC(=O)c1cc(C(=O)NCC2CCOCC2)n2c1CCCC2)c1ccccc1 [16mq, 5,6,7,8-Tetrahydro-indolizine-1,3-dicarboxylic acid 1-[((R)-1-phenyl-propyl)-amide] 3-[(tetrahydro-pyran-4-ylmethyl)-amide]]
7 | 540 | – | CC[C@@H](NC(=O)c1cc(C(=O)NCc2nc3ccccc3o2)c2n1CCOC2)c1ccccc1 [16js, 3,4-Dihydro-1H-pyrrolo[2,1-c][1,4]oxazine-6,8-dicarboxylic acid 8-[(benzooxazol-2-ylmethyl)-amide] 6-[((R)-1-phenyl-propyl)-amide]]
8 | 1500 | – | CC[C@@H](NC(=O)c1cc(C(=O)NCc2ncccn2)c2n1CCOC2)c1ccccc1 [16jm, 3,4-Dihydro-1H-pyrrolo[2,1-c][1,4]oxazine-6,8-dicarboxylic acid 6-[((R)-1-phenyl-propyl)-amide] 8-[(pyrimidin-2-ylmethyl)-amide]]
9 | 670 | – | CC[C@@H](NC(=O)c1cc(C(=O)NCc2ccc(F)cc2F)c2n1CCOC2)c1cccc(OC)n1 [16nt, 3,4-Dihydro-1H-pyrrolo[2,1-c][1,4]oxazine-6,8-dicarboxylic acid 8-(2,4-difluoro-benzylamide) 6-{[(R)-1-(6-methoxy-pyridin-2-yl)-propyl]-amide}]
10 | 2500 | – | CC[C@@H](NC(=O)c1cc(C(=O)NCc2nnn(C)n2)n2c1COCC2)c1ccccc1 [16rs, 3,4-Dihydro-1H-pyrrolo[2,1-c][1,4]oxazine-6,8-dicarboxylic acid 6-[(2-methyl-2H-tetrazol-5-ylmethyl)-amide] 8-[((R)-1-phenyl-propyl)-amide]]
11 | – | 80 | CC[C@H](NC(=O)c1cc(C(=O)N2CCC[C@@H]2C)n2c1COCC2)c1cnc(C(F)(F)F)cc1Cl [16bs, 6-((S)-2-Methyl-pyrrolidine-1-carbonyl)-3,4-dihydro-1H-pyrrolo[2,1-c][1,4]oxazine-8-carboxylic acid [(S)-1-(4-chloro-6-trifluoromethyl-pyridin-3-yl)-propyl]-amide]
12 | 57 | – | CC[C@H](NC(=O)c1cc(C(=O)N[C@H](CC)c2ccccc2)c2n1CCOC2)c1cnccn1 [16hx, 3,4-Dihydro-1H-pyrrolo[2,1-c][1,4]oxazine-6,8-dicarboxylic acid 8-[((R)-1-phenyl-propyl)-amide] 6-[((S)-1-pyrazin-2-yl-propyl)-amide]]
